Values joined by “and” are separate entries in the source; they are usually repeats but may differ in a detail not shown here. Identical values can stand only once. Toxic doses and inconclusive results are not listed. Cut-off read from the data, not from the text of the source: active = T/C of 150% or more; inactive = T/C below 125%.
System: L1210 leukemia ip in BDF1 mice, survival T/C
Assay: NCI In Vivo Anticancer Drug Screen. Data for tumor model L1210 Leukemia (intraperitoneal) in B6D2F1 (BDF1) mice
Settings: endpoint: mean survival time, higher = longer survival
Summary of the method: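 Transplantable tumor model; survival measured in treated vs vehicle control mice. Value = treated/control.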

[1] = dose: 100.0 mg/kg/injection, schedule: Q01DX001 (ip), vehicle: saline with Tween-80
[2] = dose: 100.0 mg/kg/injection, schedule: Q01DX001 (ip), vehicle: saline
[3] = dose: 100.0 mg/kg/injection, schedule: Q01DX009 (ip), vehicle: saline
[4] = dose: 100.0 mg/kg/injection, schedule: Q04DX002 (ip), vehicle: saline
[5] = dose: 100.0 mg/kg/injection, schedule: Q04DX003 (ip), vehicle: saline
[6] = dose: 200.0 mg/kg/injection, schedule: Q01DX001 (ip), vehicle: saline
[7] = dose: 200.0 mg/kg/injection, schedule: Q01DX009 (ip), vehicle: saline
[8] = dose: 200.0 mg/kg/injection, schedule: Q04DX002 (ip), vehicle: saline
[9] = dose: 200.0 mg/kg/injection, schedule: Q04DX003 (ip), vehicle: saline
[10] = dose: 400.0 mg/kg/injection, schedule: Q01DX001 (ip), vehicle: saline
[11] = dose: 400.0 mg/kg/injection, schedule: Q01DX009 (ip), vehicle: saline
[12] = dose: 400.0 mg/kg/injection, schedule: Q04DX002 (ip), vehicle: saline
[13] = dose: 400.0 mg/kg/injection, schedule: Q04DX003 (ip), vehicle: saline
[14] = dose: 100.0 mg/kg/injection, schedule: Q01DX009 (ip), vehicle: Klucel (hydroxypropylcellulose) (HPC)
[15] = dose: 200.0 mg/kg/injection, schedule: Q01DX009 (ip), vehicle: Klucel (hydroxypropylcellulose) (HPC)
[16] = dose: 100.0 mg/kg/injection, schedule: Q01DX001 (ip), vehicle: Klucel (hydroxypropylcellulose) (HPC)
[17] = dose: 200.0 mg/kg/injection, schedule: Q01DX001 (ip), vehicle: Klucel (hydroxypropylcellulose) (HPC)
[18] = dose: 400.0 mg/kg/injection, schedule: Q01DX001 (ip), vehicle: Klucel (hydroxypropylcellulose) (HPC)
[19] = dose: 400.0 mg/kg/injection, schedule: Q01DX009 (ip), vehicle: Klucel (hydroxypropylcellulose) (HPC)
[20] = dose: 100.0 mg/kg/injection, schedule: Q01DX001 (ip), vehicle: carboxymethylcellulose (CMC)
[21] = dose: 200.0 mg/kg/injection, schedule: Q01DX001 (ip), vehicle: carboxymethylcellulose (CMC)
[22] = dose: 100.0 mg/kg/injection, schedule: Q04DX002 (ip), vehicle: Klucel (hydroxypropylcellulose) (HPC)
[23] = dose: 200.0 mg/kg/injection, schedule: Q04DX002 (ip), vehicle: Klucel (hydroxypropylcellulose) (HPC)
[24] = dose: 400.0 mg/kg/injection, schedule: Q04DX002 (ip), vehicle: Klucel (hydroxypropylcellulose) (HPC)

Measured: T/C

Nc1ccc(CCCCOc2ccccc2)cc1
inactive: dose: 25.0 mg/kg/injection, schedule: Q01DX001 (ip), vehicle: saline with Tween-80 104 % of control | dose: 50.0 mg/kg/injection, schedule: Q01DX001 (ip), vehicle: saline with Tween-80 95 % of control | [1] 98 % of control and 106 % of control

Cc1cccc2cc[nH]c12
inactive: dose: 50.0 mg/kg/injection, schedule: Q01DX001 (ip), vehicle: other 115 % of control | dose: 100.0 mg/kg/injection, schedule: Q01DX001 (ip), vehicle: other 87 % of control | dose: 200.0 mg/kg/injection, schedule: Q01DX001 (ip), vehicle: other 102 % of control | dose: 400.0 mg/kg/injection, schedule: Q01DX001 (ip), vehicle: other 96 % of control

CCOC(=O)CC(=O)CCc1ccccc1
inactive: [2] 104 % of control | [3] 94 % of control and 100 % of control | [4] 103 % of control and 105 % of control | [5] 113 % of control | [6] 104 % of control | [7] 94 % of control and 102 % of control | [8] 100 % of control and 108 % of control | [9] 106 % of control | [10] 103 % of control | [11] 92 % of control and 97 % of control | [12] 96 % of control and 102 % of control | [13] 105 % of control

CC(CCCCC1NC(=O)NC1C)C(=O)O (stereo not given)
inactive: [2] 95 % of control | [6] 90 % of control | [10] 90 % of control

CC1=[N+](CCS(C)(=O)=O)C(C)CCC1 (stereo not given)
inactive: dose: 50.0 mg/kg/injection, schedule: Q01DX001 (ip), vehicle: saline 115 % of control | [2] 110 % of control | [6] 106 % of control | [10] 106 % of control

O=S(=O)(F)c1cc(Cl)c(O)cc1Cl
inactive: [14] 97 % of control | [15] 101 % of control

C1=C\CCC2(OCCO2)C2(CC/1)OCCO2
inactive: dose: 50.0 mg/kg/injection, schedule: Q04DX003 (ip), vehicle: Klucel (hydroxypropylcellulose) (HPC) 100 % of control | [16] 111 % of control | [14] 104 % of control | dose: 100.0 mg/kg/injection, schedule: Q04DX003 (ip), vehicle: Klucel (hydroxypropylcellulose) (HPC) 100 % of control | [17] 109 % of control | [15] 98 % of control | dose: 200.0 mg/kg/injection, schedule: Q04DX003 (ip), vehicle: Klucel (hydroxypropylcellulose) (HPC) 97 % of control | [18] 105 % of control | [19] 98 % of control | dose: 400.0 mg/kg/injection, schedule: Q04DX003 (ip), vehicle: Klucel (hydroxypropylcellulose) (HPC) 95 % of control

CNC(=S)N/N=C/CCC/C=N/NC(=S)NC
inactive: dose: 50.0 mg/kg/injection, schedule: Q01DX001 (ip), vehicle: carboxymethylcellulose (CMC) 96 % of control | [20] 100 % of control | [21] 98 % of control

CC(=O)Nc1ccc2c(c1)C(=O)NC2=O
inactive: [16] 93 % of control | [17] 90 % of control | [18] 90 % of control

O=C(OCc1ccccc1)C1CCCN1 (stereo not given)
inactive: dose: 25.0 mg/kg/injection, schedule: Q01DX009 (ip), vehicle: water 104 % of control | dose: 25.0 mg/kg/injection, schedule: Q04DX003 (ip), vehicle: water 109 % of control | dose: 50.0 mg/kg/injection, schedule: Q01DX009 (ip), vehicle: water 97 % of control | dose: 50.0 mg/kg/injection, schedule: Q04DX003 (ip), vehicle: water 96 % of control | dose: 100.0 mg/kg/injection, schedule: Q01DX009 (ip), vehicle: water 97 % of control | [4] 100 % of control | dose: 100.0 mg/kg/injection, schedule: Q04DX003 (ip), vehicle: water 102 % of control | dose: 200.0 mg/kg/injection, schedule: Q01DX009 (ip), vehicle: water 102 % of control | [8] 96 % of control | dose: 200.0 mg/kg/injection, schedule: Q04DX003 (ip), vehicle: water 102 % of control | dose: 400.0 mg/kg/injection, schedule: Q01DX009 (ip), vehicle: water 103 % of control | dose: 400.0 mg/kg/injection, schedule: Q04DX003 (ip), vehicle: water 109 % of control

O=C(COCC(=O)N/N=C/c1c(O)ccc2ccccc12)N/N=C/c1c(O)ccc2ccccc12
inactive: [14] 98 % of control | [15] 89 % of control | [19] 95 % of control

c1ccc(N2CC2)cc1
inactive: [16] 105 % of control | [17] 100 % of control | [18] 96 % of control

COC(=O)C(N)CSCSC (stereo not given)
inactive: [3] 107 % of control | [5] 103 % of control | [7] 101 % of control | [9] 105 % of control | [11] 101 % of control | [13] 97 % of control

CCCCCCCC(=O)N(CCO)CCO
inactive: dose: 100.0 mg/kg/injection, schedule: Q04DX002 (ip), vehicle: other 96 % of control | dose: 200.0 mg/kg/injection, schedule: Q04DX002 (ip), vehicle: other 101 % of control | dose: 400.0 mg/kg/injection, schedule: Q04DX002 (ip), vehicle: other 96 % of control

S=C(Nc1ccccc1)c1ccccc1
inactive: [22] 89 % of control | [23] 92 % of control | [24] 105 % of control

O=C(NNc1ccccc1)C1C2CC3OC(=O)C1C3C2 (stereo not given)
inactive: [5] 93 % of control | [9] 98 % of control | [13] 96 % of control

NC(=S)N/N=C\c1csc2ccccc12
inactive: [20] 92 % of control | [2] 96 % of control | [21] 92 % of control | [6] 107 % of control | dose: 400.0 mg/kg/injection, schedule: Q01DX001 (ip), vehicle: carboxymethylcellulose (CMC) 95 % of control | [10] 94 % of control

CCC1(CCCCCBr)OCCO1
inactive: [22] 101 % of control | [23] 108 % of control | [24] 104 % of control

c1cc(-c2ncc[nH]2)ccn1
inactive: [1] 100 % of control

NCCC1CCCCN1 (stereo not given)
inactive: dose: 100.0 mg/kg/injection, schedule: Q04DX003 (ip), vehicle: acetone 108 % of control | dose: 150.0 mg/kg/injection, schedule: Q01DX009 (ip), vehicle: saline 117 % of control | dose: 225.0 mg/kg/injection, schedule: Q01DX009 (ip), vehicle: saline 101 % of control | dose: 335.0 mg/kg/injection, schedule: Q01DX009 (ip), vehicle: saline 110 % of control

c1ccc(CCSCCCSCCc2ccccn2)nc1
inactive: dose: 50.0 mg/kg/injection, schedule: Q04DX002 (ip), vehicle: saline 98 % of control | [4] 98 % of control | [8] 92 % of control | [12] 95 % of control

Reference: PubChem BioAssay AID248 (DTP/NCI, 2004)
